Experimental data published in patent US11083197B2, “Herbicidal composition comprising chromone derivatives and a method for weed control” (INVESTIGACIONES BIOLÓGICAS EN AGROQUÍMICOS ROSARIO S.A., priority 2015, dated 2021).
Where two headings read alike, the source gives them in different places.

Assays:
[1] = system: cucumber cotyledon disks; test: Photosynthetic efficiency (chlorophyll fluorescence, ETR); type: cell-based; settings: after 24 h of incubation in the light (42 h total)
Procedure: The effects of pure compounds of formulas III and IV were evaluated by chlorophyll fluorescence measurements according to Dayan and Zaccaro.^24 Cucumber cotyledon disks were exposed to different dilutions of each furanochromone (10, 30, 100 and 300 μM). Control tissues were exposed to the same solvent as treated tissues but without the test compounds. The cotyledon disks were incubated in darkness for 18 h before exposure to light for 24 h. Photosynthetic quantum yield and electron transport rate (ETR) were measured. ETR values were expressed as percent of the ETR average values observed in control treatments. A time-course experiment was performed by measuring induced fluorescence of cotyledon disks after treatment at 3 h in darkness (start), after 18 h in darkness, after which the samples were placed in the light, and further measurements were made after 6 and 24 h of light exposure. The results of this experiment are shown in FIG. 16 (A: khellin [compound of formula III] and B: visnagin [compound of formula IV]). Three replicates were performed for each experiment. Bars represent, from left to right in each grouping, start, 18 h dark, 6 h light, and 24 h light.

[2] = system: lettuce (Lactuca sativa); test: Germination / dose-response bioassay with lettuce; type: in vivo; settings: for Phytotoxicity at day 7, Lettuce: 1 mM, 24-well plates, rating scale of 0 to 5; for IC50 / inhibition at 1000 µg/mL: lettuce; for IC50: 7 days; for inhibition at 1000 µg/mL: 1 mg/mL, day 7; for lettuce germination: fractions at 1 mg/mL
Procedure: DCM extract of flowers of A. visnaga (1.6 g) was divided in two 800 mg halves and each one was subjected to column chromatography using an Isolera One system (Biotage), equipped with UV detector (302 and 365 nm) and automatic fraction collector. Separation was performed by normal-phase chromatography column using a SNAP Cartridge KP-Sil (37×157 mm, 50 μm irregular silica, 100 g, Biotage) and a pre-packaged SNAP Samplet Cartridge KP-Sil (37×17 mm, Biotage). A full gradient of hexane:ethyl acetate was used for elution, from 100:0 to 0:100 over 3000 ml. Flow was 40 ml/min and 25 ml fractions were collected. Equal fractions were combined based on similarities on their TLC and chromatogram profiles providing nineteen fractions named I to XIX. All fractions were evaluated for their phytotoxicity on germination bioassay of lettuce (L. sativa) and creeping bentgrass (A. stolonifera).
A filter paper and 5 lettuce or 10 mg of creeping bentgrass seeds were placed in each well of a 24-well plate. Stock solutions (10×) of test compounds were prepared in acetone. 180 μl of distilled water were added to each well together with 20 μl of stock solution or acetone in solvent control. Final concentration of acetone was 10% v/v. Plates were sealed with Parafilm, and incubated at 26° C. in a growth chamber set at 173 μmol m^−2 s^−1 continuous photosynthetically active radiation. Phytotoxic activity was qualitatively evaluated by visually comparing germination in each well with solvent control at 7 days. A qualitative estimation of phytotoxicity was obtained by using a rating scale of 0 to 5, where 0 was no effect, and 5 was no germination of seeds. This procedure was also used for testing the phytotoxicity of pure compounds on ryegrass. On this experiment 12-well plates were used. 10 seeds were placed per well and final volume was 300 μl in each one. During dose-response bioassays used for IC50 determination, germination percentage and length of plants were measured at 7 days in order to determine the concentration required for 50% germination and growth inhibition (IC50). All experiments were done in triplicate.
Using method described in Example 1, compounds of Formula III and IV above were tested against lettuce and ryegrass.
The percentage of germination and length of plants were determined at 7 days. Data represents means of three replicates±SD. The IC50 values, for both germination and growth inhibition by compounds III and IV on lettuce and ryegrass, were obtained from estimated parameters in the regression curves.
(§1) Statistical Analysis. Data from dose-response experiments were analyzed by a log-logistic model^37-38 using the dose-response curve module^39 of R software version 2.2.1.^40 Concentrations required for 50% germination or growth inhibition relative to control (IC50 values) were obtained from estimated parameters in the regression curves. The standard error (SE) of each estimation is provided. Data from phytotoxicity bioassays in the laboratory and greenhouse, ROS and cell death quantifications were analyzed by ANOVA using the InfoStat statistical software version 2015,^41 and Scheffe's test was employed to compare the means at α=0.05.

[3] = system: duckweed (Lemna paucicostata); test: Dose-response bioassay with duckweed; type: in vivo; settings: frond area increase between days 1 and 7, read-out: IC50 (μM) ± SE, duckweed growth inhibition
Procedure: Phytotoxic activity of compounds of formula III and IV above as evaluated on duckweed. Duckweed stocks were grown from a single colony consisting of a mother and two daughter fronds in a beaker on modified Hoagland media (Table 3 below). The medium was adjusted to pH 5.5 with 1 M NaOH and filtered through a 0.2 μm filter. Each well of non-pyrogenic polystyrene sterile 6-well plates was filled with 4.950 ml of Hoagland media and, 50 μl of distilled water, 50 μl of acetone in solvent control or 50 μl of acetone containing the appropriate concentration of test compound. The final concentration of acetone was 1% v/v. Two, three-frond colonies from 4 to 5 d-old stock cultures were placed in each well. Plates were placed in an incubator with white light (94.2 μE m^−2 s^−1). Total frond area per well was recorded by the Scanalyzer (LemnaTec, Germany) image analysis system from days 0 to 7. Percentage of increase between days 1 and 7 was determined relative to baseline area at day zero.
Percentage of increase between days 1 and 7 was determined relative to baseline area at day zero. Data represents means of three replicates±SD.
as §1

[4] = system: crabgrass (D. sanguinalis) and velvetleaf (A. theophrasti); test: Greenhouse postemergence spray, 2.0 kg ai/ha; type: in vivo, Digitaria sanguinalis; Abutilon theophrasti; settings: for symptoms on leaves after post-emergence spray: 6-8-day-old plants, both weed species
Procedure: Aqueous solutions containing commercial standards of pure compounds of formulas III and IV were prepared and sprayed on crabgrass (D. sanguinalis) and velvetleaf (A. theophrasti). For better dissolution of compounds in water Tween 20 (1% v/v) and acetone (1% v/v) were added to spray solution. For postemergence application 6-8-day-old plants were sprayed, and final rate of compounds was 2.0 kg active ingredient (ai) ha^−1. Plant height and dry weight were measured at 11 days after spray. Results were compared with atrazine at 1.0 kg ai ha^−1.

[5] = Lactuca sativa, 168 h, read-out: IC50(μM) ± SE to inhibit germination
[6] = Lactuca sativa, 168 h, read-out: IC50(μM) ± SE to inhibit growth

Row | Compound | reduction of electron transport rate (ETR) ([1]; 100 μM) | reduction of electron transport rate (ETR) ([1]; 300 μM) | Phytotoxicity at day 7, Lettuce [2] | IC50 [2, 5] | IC50 [2, 6] | inhibition at 1000 µg/mL ([2]; Lactuca sativa, 168 h) | lettuce germination [2] | IC50 ([2]; read-out: IC50(μM) ± SE to inhibit germination) | IC50 ([3]; Lemna aequinoctialis) | IC50 [3] | symptoms on leaves after post-emergence spray [4] | IC50 ([2]; read-out: IC50(μM) ± SE to inhibit growth) | plant size and biomass respect solvent control ([4]; 11 days after spray)
1 | COc1c2occc2c(OC)c2c(=O)cc(C)oc12 [Formula III, 4,9-dimethoxy-7-methyl-5H-furo[3,2-g]chromen-5-one] | ~35% | ~50% | 3 | 700 µM | 110 µM | 100% | completely inhibited | 701 ± 93 µM | 160 µM | 162 ± 29 µM | Necrosis symptoms | – | –
2 | COc1c2ccoc2cc2oc(C)cc(=O)c12 [Formula IV, 4-methoxy-7-methyl-5H-furo[3,2-g]chromen-5-one] | ~35% | ~50% | 3 | 740 µM | 170 µM | 100% | completely inhibited | – | 120 µM | 122 ± 28 µM | Necrosis symptoms | 175 ± 16 µM | significant reduction of plant size and biomass
